According to patent publication US12673961B2 (Agios Pharmaceuticals, Inc., priority 2022, dated 2026):

Biological target: T1, human PAH with the R408W mutation (Homo sapiens, UniProt P00439, R408W)
T1 construct: expressed in transfected cells
T1 sequence (P00439 1-452 R408W): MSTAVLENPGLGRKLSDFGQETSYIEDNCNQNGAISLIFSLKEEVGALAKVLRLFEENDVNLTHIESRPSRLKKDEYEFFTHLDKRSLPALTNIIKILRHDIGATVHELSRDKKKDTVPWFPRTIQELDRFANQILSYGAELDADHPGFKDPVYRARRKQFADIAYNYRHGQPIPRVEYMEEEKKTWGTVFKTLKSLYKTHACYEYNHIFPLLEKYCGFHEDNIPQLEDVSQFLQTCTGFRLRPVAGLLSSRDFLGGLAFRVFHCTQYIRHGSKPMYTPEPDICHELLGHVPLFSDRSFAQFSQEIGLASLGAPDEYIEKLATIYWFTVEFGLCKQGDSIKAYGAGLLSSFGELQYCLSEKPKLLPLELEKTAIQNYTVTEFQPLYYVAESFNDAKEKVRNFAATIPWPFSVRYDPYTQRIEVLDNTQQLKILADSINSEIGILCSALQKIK
Assay: Cell Based Phenylalanine Flux Assay;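 further: Ten-point dose curve from 2-fold serial dilutions, run in duplicate at 0.5% DMSO final, tracer step used 20 µM sepiapterin and 800 µM labeled phenylalanine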
Conditions: A375 cells expressing R408W PAH; 24 hrs with compound, then 20 μM sepiapterin and 800 μM 13C9,15N-Phenylalanine for 4 hours; 13C-Tyrosine in media by LC-MS; average where tested multiple times; read-out: AC50

| Structure (SMILES) | AC50 [nM] |
| --- | --- |
| O=C(c1nnc(-c2ccc(C(F)(F)F)cn2)o1)N1CCc2[nH]cnc2[C@H]1c1cc2ccccn2n1 (single isomer, unassigned) | 1000 to 5000 |
| O=C(c1nnc(C2CC(F)(F)C2)o1)N1CCc2[nH]cnc2[C@H]1c1cc2ccccn2n1 (single isomer, unassigned) | 1000 to 5000 |
| COCc1ccc2c(C(=O)N3CCc4[nH]cnc4C3c3cc4cccc(F)n4n3)cnn2c1 (stereo not shown) | 1000 to 5000 |
| Fc1cccn2nc([C@@H]3c4nc[nH]c4CCN3c3nnc(-c4cccnn4)o3)cc12 (single isomer, unassigned) | 1000 to 5000 |
| Cc1c(-c2ncc(C(=O)N3CCc4[nH]cnc4[C@H]3c3cc4ccccn4n3)o2)cnn1C (single isomer, unassigned) | 1000 to 5000 |
| Cc1nnc(C(=O)N2CCc3[nH]cnc3C2c2cc3ccc(F)cn3n2)o1 (stereo not shown) | 1000 to 5000 |

Same assay, conditions: A375 cells expressing human R408W PAH; 24 hrs compound incubation; 13C-Tyrosine by LC-MS; average where tested multiple times; read-out: AC50

| AC50 [nM] | Structure (SMILES) |
| --- | --- |
| > 5000 | O=C(c1nnc(-c2ccn(C(F)F)n2)o1)N1CCc2[nH]cnc2[C@@H]1c1cc2c(C(F)F)cccn2n1 [Example 1376, (R)-(5-(1-(difluoromethyl)-1H-pyrazol-3-yl)-1,3,4-oxadiazol-2-yl)(4-(4-(difluoromethyl)pyrazolo[1,5-a]pyridin-2-yl)-6,7-dihydro-1H-imidazo[4,5-c]pyridin-5(4H)-yl)methanone] |
| < 500 | O=C(c1nnc(-c2cnccn2)o1)N1CCc2[nH]cnc2[C@H]1c1cc2c(F)cccn2n1 [Example 962, (S)-(4-(4-fluoropyrazolo[1,5-a]pyridin-2-yl)-6,7-dihydro-1H-imidazo[4,5-c]pyridin-5(4H)-yl)(5-(pyrazin-2-yl)-1,3,4-oxadiazol-2-yl)methanone] |
| < 500 | COc1ccc(-c2nnc(C(=O)N3CCc4[nH]cnc4[C@H]3c3cc4c(F)cccn4n3)o2)nc1 [Example 788, (S)-(4-(4-fluoropyrazolo[1,5-a]pyridin-2-yl)-6,7-dihydro-1H-imidazo[4,5-c]pyridin-5(4H)-yl)(5-(5-methoxypyridin-2-yl)-1,3,4-oxadiazol-2-yl)methanone] |
| 500 to 1000 | O=C(c1oc(-c2ccccn2)nc1C1CC1)N1CCc2[nH]cnc2[C@H]1c1cc2ccccn2n1 [Example 622, (S)-(4-cyclopropyl-2-(pyridin-2-yl)oxazol-5-yl)(4-(pyrazolo[1,5-a]pyridin-2-yl)-6,7-dihydro-1H-imidazo[4,5-c]pyridin-5(4H)-yl)methanone] |
| 500 to 1000 | N#Cc1ncoc1C(=O)N1CCc2[nH]cnc2[C@H]1c1cc2ccccn2n1 (single isomer, unassigned) [Example 640] |
| < 500 | Cc1cccn2nc([C@@H]3c4nc[nH]c4CCN3C(=O)c3nnc(C(C)(C)C)o3)cc12 [Example 1022, (S)-(5-(tert-butyl)-1,3,4-oxadiazol-2-yl)(4-(4-methylpyrazolo[1,5-a]pyridin-2-yl)-6,7-dihydro-1H-imidazo[4,5-c]pyridin-5(4H)-yl)methanone] |
| > 5000 | O=C(c1nnc(-c2ccccn2)o1)N1CCc2[nH]cnc2[C@@H]1c1cc2c(C(F)(F)F)cccn2n1 [Example 827, (R)-(5-(pyridin-2-yl)-1,3,4-oxadiazol-2-yl)(4-(4-(trifluoromethyl)pyrazolo [1,5-a]pyridin-2-yl)-6,7-dihydro-1H-imidazo[4,5-c]pyridin-5(4H)-yl)methanone] |
| > 5000 | Cc1cccn2nc([C@H]3c4nc[nH]c4CCN3C(=O)c3nc(C4CC4)nn3C)cc12 [Example 1059] |
| 500 to 1000 | Cc1nc(C(=O)N2CCc3[nH]cnc3[C@H]2c2cc3c(Cl)cccn3n2)n(C)n1 [Example 1074, (S)-(4-(4-chloropyrazolo [1,5-a]pyridin-2-yl)-6,7-dihydro-1H-imidazo[4,5-c]pyridin-5(4H)-yl)(1,3-dimethyl-1H-1,2,4-triazol-5-yl)methanone] |
| > 5000 | Cc1cccn2nc([C@H]3c4nc[nH]c4CCN3C(=O)c3cnco3)cc12 [Example 769, (R)-(4-(4-methylpyrazolo [1,5-a]pyridin-2-yl)-6,7-dihydro-1H-imidazo[4,5-c]pyridin-5(4H)-yl)(oxazol-5-yl)methanone] |
| < 500 | O=C(c1nnc(-c2ccccn2)o1)N1CCc2[nH]cnc2[C@H]1c1cc2c(C(F)(F)F)cccn2n1 [Example 826, (S)-(5-(pyridin-2-yl)-1,3,4-oxadiazol-2-yl)(4-(4-(trifluoromethyl)pyrazolo [1,5-a]pyridin-2-yl)-6,7-dihydro-1H-imidazo[4,5-c]pyridin-5(4H)-yl)methanone] |

| Structure (SMILES) | AC50 [nM] |
| --- | --- |
| N#Cc1ncoc1C(=O)N1CCc2[nH]cnc2[C@@H]1c1cc2ccc(Cl)cn2n1 [Example 685, (R)-5-(4-(6-chloropyrazolo [1,5-a]pyridin-2-yl)-4,5,6,7-tetrahydro-1H-imidazo[4,5-c]pyridine-5-carbonyl) oxazole-4-carbonitrile] | > 5000 |

Same assay, conditions: A375 cells expressing human R408W PAH; 24 hrs with compound, then sepiapterin and 13C9,15N-Phenylalanine for 4 hours; 13C-Tyrosine by LC-MS; average where tested multiple times; read-out: AC50

| AC50 [nM] | Structure (SMILES) |
| --- | --- |
| > 5000 | CC(C)c1cccn2nc([C@H]3c4nc[nH]c4CCN3c3nnc(-c4cccnc4F)o3)cc12 [Example 2334, (R)-2-(2-fluoropyridin-3-yl)-5-(4-(4-isopropylpyrazolo[1,5-a]pyridin-2-yl)-1,4,6,7-tetrahydro-5H-imidazo[4,5-c]pyridin-5-yl)-1,3,4-oxadiazole] |
| > 5000 | O=C(c1cnc(-c2ccccn2)o1)N1CCc2[nH]cnc2[C@@H]1c1cc2c(C(F)F)cccn2n1 [Example 2035, (R)-(4-(4-(difluoromethyl)pyrazolo[1,5-a]pyridin-2-yl)-1,4,6,7-tetrahydro-5H-imidazo [4,5-c]pyridin-5-yl)(2-(pyridin-2-yl)oxazol-5-yl)methanone] |
| < 500 | Fc1ccc(-c2nnc(N3CCc4[nH]cnc4[C@H]3c3cc4c(C(F)F)cccn4n3)o2)cc1 [Example 1913, (S)-2-(4-(4-(difluoromethyl)pyrazolo[1,5-a]pyridin-2-yl)-1,4,6,7-tetrahydro-5H-imidazo [4,5-c]pyridin-5-yl)-5-(4-fluorophenyl)-1,3,4-oxadiazole] |
| > 5000 | Cc1cccc2cc([C@H]3c4nc[nH]c4CCN3c3nnc(-c4ccccn4)o3)nn12 [Example 1641, (R)-2-(4-(7-methylpyrazolo [1,5-a]pyridin-2-yl)-6,7-dihydro-1H-imidazo[4,5-c]pyridin-5(4H)-yl)-5-(pyridin-2-yl)-1,3,4-oxadiazole] |
| 500 to 1000 | Cc1ccc2c(C(=O)N3CCc4[nH]cnc4[C@H]3c3cc4c(C(F)F)cccn4n3)cnn2c1 [Example 1712, (S)-(4-(4-(difluoromethyl)pyrazolo[1,5-a]pyridin-2-yl)-6,7-dihydro-1H-imidazo [4,5-c]pyridin-5(4H)-yl)(6-methylpyrazolo[1,5-a]pyridin-3-yl)methanone] |
| < 500 | Fc1cccc(F)c1-c1nnc(N2CCc3[nH]cnc3[C@H]2c2cc3ccccn3n2)o1 (single isomer, unassigned) [Example 1843] |
| > 5000 | Cc1cccn2nc([C@H]3c4nc[nH]c4CCN3c3nnc(C4(C)CC4)o3)cc12 [Example 2188, (R)-2-(1-methylcyclopropyl)-5-(4-(4-methylpyrazolo[1,5-a]pyridin-2-yl)-1,4,6,7-tetrahydro-5H-imidazo[4,5-c]pyridin-5-yl)-1,3,4-oxadiazole] |
| 1000 to 5000 | Cc1ncccc1-c1nnc(N2CCc3[nH]cnc3[C@H]2c2cc3c(C(F)F)cccn3n2)o1 [Example 2210, (S)-2-(4-(4-(difluoromethyl)pyrazolo[1,5-a]pyridin-2-yl)-1,4,6,7-tetrahydro-5H-imidazo [4,5-c]pyridin-5-yl)-5-(2-methylpyridin-3-yl)-1,3,4-oxadiazole] |
| < 500 | CC(C)c1cccn2nc([C@@H]3c4nc[nH]c4CCN3C(=O)c3nnc(-c4cnn(C(F)F)c4)o3)cc12 [Example 1936, (S)-(5-(1-(difluoromethyl)-1H-pyrazol-4-yl)-1,3,4-oxadiazol-2-yl)(4-(4-isopropylpyrazolo[1,5-a]pyridin-2-yl)-1,4,6,7-tetrahydro-5H-imidazo[4,5-c]pyridin-5-yl)methanone] |
| < 500 | Cn1cc(-c2ccc3c(C(=O)N4CCc5[nH]cnc5[C@H]4c4cc5c(C(F)(F)F)cccn5n4)cnn3c2)cn1 [Example 1552, (S)-(6-(1-methyl-1H-pyrazol-4-yl)pyrazolo[1,5-a]pyridin-3-yl)(4-(4-(trifluoromethyl)pyrazolo[1,5-a]pyridin-2-yl)-6,7-dihydro-1H-imidazo[4,5-c]pyridin-5(4H)-yl)methanone] |
| 500 to 1000 | CC(C)(C)c1nnc(C(=O)N2CCc3[nH]cnc3[C@H]2c2cc3cccc(C(F)F)n3n2)o1 [Example 1419, (S)-(5-(tert-butyl)-1,3,4-oxadiazol-2-yl)(4-(7-(difluoromethyl)pyrazolo [1,5-a]pyridin-2-yl)-6,7-dihydro-1H-imidazo[4,5-c]pyridin-5(4H)-yl)methanone] |
| 500 to 1000 | O=C(c1nnc(-c2cnccn2)o1)N1CCc2[nH]cnc2[C@H]1c1cc2cccc(C(F)F)n2n1 [Example 1535, (S)-(4-(7-(difluoromethyl)pyrazolo[1,5-a]pyridin-2-yl)-6,7-dihydro-1H-imidazo[4,5-c]pyridin-5(4H)-yl)(5-(pyrazin-2-yl)-1,3,4-oxadiazol-2-yl)methanone] |
| < 500 | CCc1cccn2nc([C@@H]3c4nc[nH]c4CCN3C(=O)c3nnc(-c4ccn(C)n4)o3)cc12 [Example 1927, (S)-(4-(4-ethylpyrazolo [1,5-a]pyridin-2-yl)-1,4,6,7-tetrahydro-5H-imidazo[4,5-c]pyridin-5-yl)(5-(1-methyl-1H-pyrazol-3-yl)-1,3,4-oxadiazol-2-yl)methanone] |
